Test results: PubChem BioAssay (NCI)
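96-well plates; 48 h exposure; 5 concentrations. Endpoints by linear interpolation between flanking doses. Not reached: highest tested concentration assigned. GI50 marks 50% less growth. At the TGI there is no net growth.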

Tests used:
Test in all cases: NCI anticancer screen, dose series, 48 h
ACHN renal = system: ACHN renal
CAKI-1 renal = system: CAKI-1 renal
CCRF-CEM leukemia = system: CCRF-CEM leukemia
COLO 205 colon = system: COLO 205 colon
KM12 colon = system: KM12 colon
MDA-MB-231 breast = system: MDA-MB-231 breast
MOLT-4 leukemia = system: MOLT-4 leukemia
NCI-H460 lung = system: NCI-H460 lung
PC-3 prostate = system: PC-3 prostate
RPMI-8226 leukemia = system: RPMI-8226 leukemia

## COC1C(O)CC(OC2CC(OC3CC(O[C@@H]4C(=O)c5c(cc6cc(OC7CC(OC8CC(O)C(O)C(C)O8)C(O)C(C)O7)c(C)c(O)c6c5O)CC4[C@H](OC)C(=O)O)OC(C)C3O)OC(C)C2O)OC1C (stereo partly drawn)
ACHN renal
  GI50: 1.09 µM
  TGI: > 33.3 µM
CAKI-1 renal
  GI50: 2.6 µM
  TGI: > 33.3 µM
CCRF-CEM leukemia
  GI50: 3.57 µM
  TGI: > 33.3 µM
COLO 205 colon
  GI50: 1.09 µM
  TGI: 6.9 µM
KM12 colon
  GI50: 1.89 µM
  TGI: > 33.3 µM
MDA-MB-231 breast
  GI50: 4.43 µM
  TGI: > 33.3 µM
MOLT-4 leukemia
  GI50: 2.08 µM
  TGI: > 33.3 µM
NCI-H460 lung
  GI50: 1.31 µM
  TGI: > 33.3 µM
PC-3 prostate
  GI50: 2.4 µM
  TGI: > 33.3 µM
RPMI-8226 leukemia
  GI50: 1.73 µM
  TGI: > 33.3 µM

## CC(=O)/C(=C/c1ccccc1)C(=O)CC(C)C
ACHN renal
  GI50: 11.2 µM
  TGI: 26.3 µM
CAKI-1 renal
  GI50: 7.56 µM
  TGI: 20.6 µM
CCRF-CEM leukemia
  GI50: 3.96 µM
  TGI: > 100 µM
COLO 205 colon
  GI50: 16.9 µM
  TGI: 35.5 µM
KM12 colon
  GI50: 2.25 µM
  TGI: 5.01 µM
MDA-MB-231 breast
  GI50: 18.2 µM
  TGI: 41.1 µM
MOLT-4 leukemia
  GI50: 3.59 µM
  TGI: 79.4 µM
NCI-H460 lung
  GI50: 17.5 µM
  TGI: 38.5 µM
PC-3 prostate
  GI50: 25.6 µM
  TGI: 93.6 µM
RPMI-8226 leukemia
  GI50: 4.31 µM
  TGI: 98.2 µM

## CO[C@H]1C=CO[C@@]2(C)Oc3c(C)c(O)c4c(O)c(c(CN5CCN(C)CC5)c(O)c4c3C2=O)NC(=O)/C(C)=C\C=C[C@H](C)[C@H](O)C(C)[C@@H](O)C(C)[C@H](OC(C)=O)[C@@H]1C (stereo partly drawn)
ACHN renal
  TGI: > 100 µM
CAKI-1 renal
  TGI: > 100 µM
CCRF-CEM leukemia
  TGI: 22.3 µM
COLO 205 colon
  TGI: 25.2 µM
KM12 colon
  TGI: > 100 µM
MDA-MB-231 breast
  TGI: > 100 µM
MOLT-4 leukemia
  TGI: 49.1 µM
NCI-H460 lung
  TGI: > 100 µM
PC-3 prostate
  TGI: > 100 µM
RPMI-8226 leukemia
  TGI: > 87.4 µM

## CCCCCCCCCCCCCCCCCc1nccn1CCOCCO
ACHN renal
  GI50: 5.95 µg/mL
  TGI: 11.1 µg/mL
CAKI-1 renal
  GI50: 6.3 µg/mL
  TGI: 13.1 µg/mL
CCRF-CEM leukemia
  GI50: 5.18 µg/mL
  TGI: 12.4 µg/mL
COLO 205 colon
  GI50: 6.07 µg/mL
  TGI: 11.4 µg/mL
KM12 colon
  GI50: 6.06 µg/mL
  TGI: 11.4 µg/mL
MDA-MB-231 breast
  GI50: 4.4 µg/mL
  TGI: 9.29 µg/mL
MOLT-4 leukemia
  GI50: 5.5 µg/mL
  TGI: 12.3 µg/mL
NCI-H460 lung
  GI50: 5.66 µg/mL
  TGI: 11.9 µg/mL
PC-3 prostate
  GI50: 4.9 µg/mL
  TGI: 10.7 µg/mL
RPMI-8226 leukemia
  GI50: 3.87 µg/mL
  TGI: 10.9 µg/mL

## O=C1/C(=C/c2ccccc2)CN(C(=O)C(Cl)Cl)C/C1=C\c1ccccc1
ACHN renal
  GI50: 0.438 µM
  TGI: 1.44 µM
CAKI-1 renal
  GI50: 1.42 µM
  TGI: 2.95 µM
CCRF-CEM leukemia
  GI50: 0.152 µM
COLO 205 colon
  GI50: 1.19 µM
  TGI: 3.01 µM
KM12 colon
  GI50: 0.267 µM
  TGI: 0.845 µM
MDA-MB-231 breast
  GI50: 0.807 µM
  TGI: 2.46 µM
MOLT-4 leukemia
  GI50: 0.369 µM
NCI-H460 lung
  GI50: 1.3 µM
  TGI: 3.01 µM
PC-3 prostate
  GI50: 0.297 µM
  TGI: 1.08 µM
RPMI-8226 leukemia
  GI50: 0.0474 µM
  TGI: 0.278 µM
